Laboratory results reported in patent publication US12491185B2, “Inhibitors of mPTP” (NRG Therapeutics Ltd, priority 2023, dated 2025).

How the values were obtained:
mPTP [1] = assay: mPTP activity assay in isolated rat brain mitochondria; format: biochemical; settings: fluorescence at 10 min timepoint
Experimental: MPTP activity was measured in brain mitochondria freshly isolated from female Sprague Dawley (250 to 300 gram) rats. Anaesthetised rats were perfused in-situ with −40 ml cold Dulbecco's Phosphate Buffered Saline (DPBS), then brains dissected and transferred into 30 ml Isolation Buffer (225 mM mannitol, 75 mM sucrose, 1 mM EGTA, adjusted to pH 7.4 with 1M NaOH). The brain was minced using tweezers and a scalpel into −5 mm pieces then transferred into a 50 ml Potterton Dounce homogenization tube on ice containing 10 ml ice-cold isolation buffer (as above with addition of Complete Protease inhibitor; 1 tablet per 50 ml buffer). Homogenisation was carried out using a teflon pestle at 1800 rpm. The slurry was centrifuged at 2000 g for 10 min at 4° C., then the supernatant centrifuged at 12,000 g for 9 min. The pellet was resuspended with a dounce homogeniser in isolation buffer as above but with the addition of 0.02% digitonin, centrifuged at 12,000 g for 11 min and finally resuspended in 5 ml modified isolation buffer (as above but with EGTA reduced to 0.1 mM).
Test compounds were prepared in 384 well polypropylene assay plates as described above for the liver mitochondria assay. A stock mitochondria/Fluo5N assay solution was prepared in 5.6 ml assay buffer (120 mM mannitol, 40 mM MOPS, 5 mM KH2PO4, 60 mM KCl, 10 mM pyruvate, 2 mM malate, 2 mM MgCl2, 20 μM ADP, 1.26 μM oligomycin A, adjusted to pH 7.4) supplemented with Fluo5N pentapotassium salt (2 μM) and 1 ml mitochondria suspension, then transferred (15 μl) into the assay plate containing test compounds and incubated for 10 min at RT. Assay plates were then transferred to a FLIPR Tetra plate reader (Molecular Devices). Dye fluorescence was then measured every 3 sec for a total of 10 min.

mPTP [2] = assay: mPTP activity (Ca2+ retention) assay in isolated rat liver mitochondria; format: biochemical; settings: examples tested by different contract research organisations, believed comparable
Outline: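 pIC50 was taken from Fluo5N fluorescence at 10 min after a 75 μM CaCl2 bolus, scaled between DMSO (0%) and 5 μM cyclosporin A (100%). Compounds, ten half-log concentrations from 30 μM to 1 nM final, sat 10 min at RT with fresh female Sprague Dawley rat liver mitochondria energized by succinate plus rotenone.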

Row | mPTP Rat brain pIC50 (mPTP [1]) | mPTP Rat liver pIC50 (mPTP [2]) | Structure (SMILES)
1 | 7.12 | 6.22 | O=C(NC[C@H](Cc1cc(F)ccc1F)C1CC1)c1nccc(=O)[nH]1 [Example 153]
2 | 7.71 | 6.39 | CC(CNC(=O)c1ncc(F)c(=O)[nH]1)(Cc1ccc(F)cc1F)C1CC1 (single isomer, unassigned) [Example 258, N-[2-cyclopropyl-3-(2,4-difluorophenyl)-2-methylpropyl]-5-fluoro-4-oxo-3H-pyrimidine-2-carboxamide]
3 | 7.66 | 6.48 | O=C(NC[C@H](Cc1ccc(F)c(F)c1)C1CC1)c1noc(=O)[nH]1 [Example 203]
4 | 6.79 | 5.76 | CC(CNC(=O)c1nn(C)c(=O)[nH]1)Cc1ccccc1 (centres unmarked) [Example 32, 1-methyl-N-(2-methyl-3-phenylpropyl)-5-oxo-4,5-dihydro-1H-1,2,4-triazole-3-carboxamide]
5 | 6.73 | 5.76 | CC(C)(CNC(=O)c1ccc(=O)[nH]n1)Cc1ccccc1 [Example 56]
6 | 6.86 | 5.23 | Cn1nc(C(=O)NC(C(F)(F)F)C(C)(C)Cc2ccccc2)[nH]c1=O (centres unmarked) [Example 35, 1-methyl-5-oxo-N-(1,1,1-trifluoro-3,3-dimethyl-4-phenylbutan-2-yl)-4,5-dihydro-1H-1,2,4-triazole-3-carboxamide]
7 | 6.89 | 6.02 | Cc1ncc(C(=O)NCC2(Cc3ccccc3)CCC2)cc1O [Example 3, N-((1-benzylcyclobutyl)methyl)-5-hydroxy-6-methylnicotinamide]
8 | 7.76 | 6.21 | Cn1nc(C(=O)NCC(C)(Cc2c(F)cc(F)cc2F)C2CC2)[nH]c1=O (single isomer, unassigned) [Example 227, N-[2-cyclopropyl-2-methyl-3-(2,4,6-trifluorophenyl)propyl]-1-methyl-5-oxo-4H-1,2,4-triazole-3-carboxamide]
9 | 7.12 | 6.16 | Cn1nc(C(=O)NCC(C)(Cc2c(F)cc(F)cc2F)C2CC2)[nH]c1=O (single isomer, unassigned) [Example 228, N-[2-cyclopropyl-2-methyl-3-(2,4,6-trifluorophenyl)propyl]-1-methyl-5-oxo-4H-1,2,4-triazole-3-carboxamide]
10 | 7.46 | 6.56 | CC(c1ccc(F)cc1F)[C@@H](CNC(=O)c1nn(C)c(=O)[nH]1)C1CC1 (single isomer, unassigned) [Example 237]

The next lines start with the compound.

Row | Structure (SMILES) | mPTP Rat brain pIC50 (mPTP [1]) | mPTP Rat liver pIC50 (mPTP [2])
11 | O=C(NCC1(Cc2ccc(F)cc2F)CCC1)c1noc(=O)[nH]1 [Example 205] | 7.38 | 6.15
12 | O=C(NCC1(Cc2ccccc2)CCC1)c1cncc(O)n1 [Example 2, N-((1-benzylcyclobutyl)methyl)-6-hydroxypyrazine-2-carboxamide] | 6.95 | 5.64
13 | O=C(NCC1(Cc2ccc(F)cc2F)CC12CC2)c1nccc(=O)[nH]1 (single isomer, unassigned) [Example 236] | 7.18 | 6.11
14 | CC(C)(CNC(=O)c1cncc(O)n1)Cc1ccccc1 [Example 12, N-(2,2-dimethyl-3-phenylpropyl)-6-hydroxypyrazine-2-carboxamide] | 7.08 | 5.70
15 | Cc1ccccc1CC1(CNC(=O)c2cncc(=O)[nH]2)CCC1 [Example 19, N-((1-(2-methylbenzyl)cyclobutyl)methyl)-6-oxo-1,6-dihydropyrazine-2-carboxamide] | 7.35 | 5.41
16 | Cn1nc(C(=O)NCC2(Cc3cccc(Br)c3)CCC2)[nH]c1=O [Example 99, N-((1-(3-Bromobenzyl)cyclobutyl)methyl)-1-methyl-5-oxo-4,5-dihydro-1H-1,2,4-triazole-3-carboxamide] | 7.68 | 5.89
